# Molecular target: ROMK (Kir1.1) channel (Homo sapiens (Human), UniProt P48048)
# Experiment: Thallium Flux Assay
# Format: cell-based
# Protocol: A Thallium Flux Assay was performed on each of the final product compounds of the Examples. This assay has been described previously; see, e.g., PCT Published Application WO 2013/062900.
# Chain of ROMK (Kir1.1) channel (P48048 whole entry): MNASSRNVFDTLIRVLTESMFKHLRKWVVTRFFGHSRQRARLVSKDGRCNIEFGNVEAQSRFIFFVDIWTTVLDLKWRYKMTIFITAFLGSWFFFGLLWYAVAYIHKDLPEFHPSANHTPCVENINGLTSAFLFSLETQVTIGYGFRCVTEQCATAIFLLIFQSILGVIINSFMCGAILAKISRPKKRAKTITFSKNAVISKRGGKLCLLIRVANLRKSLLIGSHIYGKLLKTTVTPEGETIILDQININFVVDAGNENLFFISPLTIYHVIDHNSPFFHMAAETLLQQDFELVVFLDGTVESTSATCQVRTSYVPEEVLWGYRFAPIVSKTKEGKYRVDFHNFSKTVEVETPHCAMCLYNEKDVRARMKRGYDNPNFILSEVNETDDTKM
row,SMILES,IC50
1,"CC1=C(N2CC[C@]3(CC[C@@H](NCc4ccc(-n5cnnn5)cn4)CC3)C2=O)COC1=O [Example 7B, (5r,8r)-2-(4-methyl-5-oxo-2,5-dihydrofuran-3-yl)-8-({[5-(1H-tetrazol-1-yl)pyridin-2-yl]methyl}amino)-2-azaspiro[4.5]decan-1-one]",710 nM
2,CC1=C(N2CC[C@]3(CC[C@H](N(C)Cc4ccc5c(c4)Cn4nnnc4-5)CC3)C2=O)COC1=O [Example 89],950 nM
3,"CC1=C(N2CC[C@]3(CC[C@@H](N[C@H](C)c4ccc(-n5cnnn5)nn4)CC3)C2=O)COC1=O [Example 15, (5R,8r)-2-(4-methyl-5-oxo-2,5-dihydrofuran-3-yl)-8-({(1R)-1-[6-(1H-tetrazol-1-yl)pyridazin-3-yl]ethyl}amino)-2-azaspiro[4.5]decan-1-one]",92 nM
4,CN(Cc1ccc(-n2cnnn2)nn1)C1CCC2(CC1)CCN(C1=CC(=O)OC1)C2=O (centres unmarked) [Example 103],87 nM
5,"CC1=C(N2CC[C@]3(CC[C@@H](N[C@H](C)c4ccc5c(c4)CCc4nnnn4-5)CC3)C2=O)COC1=O [Example 18, (5R,8r)-8-{[(1R)-1-(4,5-dihydrotetrazolo[1,5-a]quinolin-7-yl)ethyl]amino}-2-(4-methyl-5-oxo-2,5-dihydrofuran-3-yl)-2-azaspiro[4.5]decan-1-one]",330 nM
6,CC1=C(N2CC[C@]3(CC[C@](C)(N(C)Cc4cnc(-n5cnnn5)cn4)CC3)C2=O)COC1=O [Example 127],91 nM
7,CC1=C(N2CC[C@]3(CC[C@@H](N(C)Cc4ccc(-n5cnnn5)nc4)CC3)C2=O)COC1=O [Example 84],740 nM
8,"CC1=C(N2CC[C@]3(CC[C@H](NCc4ccc(-n5ncnn5)cc4)CC3)C2=O)COC1=O [Example 40, (5s,8s)-2-(4-methyl-5-oxo-2,5-dihydrofuran-3-yl)-8-{[4-(2H-tetrazol-2-yl)benzyl]amino}-2-azaspiro[4.5]decan-1-one]",110 nM
9,"CC1=C(N2CC[C@]3(CC[C@H](NC[C@H](O)c4ccc5c(c4C)COC5=O)CC3)C2=O)COC1=O [Example 79, (5S,8s)-8-{[(2R)-2-hydroxy-2-(4-methyl-1-oxo-1,3-dihydro-2-benzofuran-5-yl)ethyl]amino}-2-(4-methyl-5-oxo-2,5-dihydrofuran-3-yl)-2-azaspiro[4.5]decan-1-one]",280 nM
10,CC1=C(N2CC[C@]3(CC[C@@](C)(N(C)Cc4ccc(-n5cnnn5)nn4)CC3)C2=O)COC1=O [Example 116],24 nM

# Further molecules by falling IC50, results first:
row,IC50,SMILES
1,36 nM,CC1=C(N2CC[C@]3(CC[C@@H](N(C)Cc4ccc(-n5ncnn5)nn4)CC3)C2=O)COC1=O [Example 113]
2,34 nM,CCN(Cc1ccc(-n2cnnn2)cn1)[C@H]1CC[C@]2(CCN(C3=C(C)C(=O)OC3)C2=O)CC1 [Example 138]
3,22 nM,CC1=C(N2CC[C@]3(CC[C@@H](N(C)Cc4ccc5c(c4)Cn4nnnc4-5)CC3)C2=O)COC1=O [Example 90]
4,20 nM,"C[C@H]1C[C@]2(CC[C@H](NCc3ccc4c(c3)Cn3nnnc3-4)CC2)C(=O)N1C1=CC(=O)OC1 [Example 62, (3S,5s,8R)-8-(((5H-tetrazolo[5,1-a]isoindol-7-yl)methyl)amino)-3-methyl-2-(5-oxo-2,5-dihydrofuran-3-yl)-2-azaspiro[4.5]decan-1-one]"
5,15 nM,"CC1=C(N2C(=O)[C@]3(CC[C@@H](NCc4ccc5c(c4)Cn4nnnc4-5)CC3)C[C@H]2C)COC1=O [Example 55, (3R,5s,8S)-8-(((5H-tetrazolo[5,1-a]isoindol-7-yl)methyl)amino)-3-methyl-2-(4-methyl-5-oxo-2,5-dihydrofuran-3-yl)-2-azaspiro[4.5]decan-1-one]"
6,10 nM,"CC1=C(N2CC[C@]3(CC[C@@H](NCc4ccc(-n5cnnn5)nn4)CC3)C2=O)COC1=O [Example 1, (5r,8r)-2-(4-methyl-5-oxo-2,5-dihydrofuran-3-yl)-8-({[6-(1H-tetrazol-1-yl)pyridazin-3-yl]methyl}amino)-2-azaspiro[4.5]decan-1-one]"
7,7 nM,CC1=C(N2CC[C@]3(CC[C@@H](N(C)Cc4ccc(-n5cnnn5)cn4)CC3)C2=O)COC1=O [Example 88]
